This is an account of results in ChEMBL document CHEMBL1201862, “PubChem BioAssay data set” (2004).

Among the test systems are DMS-273; CCRF-CEM; OVCAR-5; Malme-3M; SF-539; UO-31; SK-MEL-28; NCI-H23; UACC-62; HOP-92; SNB-75; HCT-116; OVCAR-8; KM-20L2; DMS-114; HL-60; IGROV-1; RPMI-8226; BT-549; MDA-MB-435.
What all share (assay): NCI-60 cell line screen, 48 h

The structures appear in SMILES notation.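 Exposure lasted 48 hours, with cells grown in 96-well plates and compounds tested at five concentrations. GI50 marks 50% less growth.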 Activity calls are given as the source filed them. Rule as the data show it: active = GI50 up to about 1.1 µM and inactive = higher.

Regarding `C[Si](C)(C)C#C[I+]c1ccccc1`, the GI50 is 19.8 µM (inactive) with DMS-273; 15.1 µM (inactive) with CCRF-CEM; > 100 µM (inactive) with OVCAR-5; 41 µM (inactive) in the experiment with Malme-3M; 28.9 µM (inactive) in the experiment on SF-539; 67 µM (inactive) in the experiment with UO-31. Moreover, the GI50 in the experiment with SK-MEL-28 was 39.4 µM (inactive); in the experiment on NCI-H23 it was 36.8 µM (inactive); in the experiment with UACC-62, 33.2 µM (inactive); with HOP-92, 40.5 µM (inactive); with SNB-75, 40.4 µM (inactive); in the experiment on HCT-116, 27.5 µM (inactive). For the same compound, the GI50 in the experiment on OVCAR-8 is 19.6 µM (inactive); in the experiment on KM-20L2, 37.5 µM (inactive); in the experiment with DMS-114, 20.9 µM (inactive); in the experiment with HL-60, 22.5 µM (inactive); with IGROV-1 it was 92 µM (inactive).
In the case of `c1ccc(C2=NN3CN(N2)c2ccccc2OCCCOc2ccccc23)cc1`, the GI50 was > 100 µM (inactive) with DMS-273; > 100 µM (inactive) in the experiment on CCRF-CEM; > 100 µM (inactive) in the experiment on OVCAR-5; > 100 µM (inactive) in the experiment on Malme-3M; > 100 µM (inactive) in the experiment on SF-539; 77.4 µM (inactive) with UO-31. Also, the GI50 with SK-MEL-28 is > 100 µM (inactive); in the experiment on NCI-H23 it was > 100 µM (inactive); with UACC-62 it was > 100 µM (inactive); in the experiment on RPMI-8226 it was 19.1 µM (inactive); in the experiment with SNB-75 it was 88.5 µM (inactive); in the experiment on HCT-116, > 100 µM (inactive). Moreover, the GI50 with OVCAR-8 is > 100 µM (inactive); in the experiment with KM-20L2, > 100 µM (inactive); in the experiment with DMS-114 it was > 100 µM (inactive); in the experiment on HL-60 it was 48.9 µM (inactive); in the experiment on IGROV-1, > 100 µM (inactive).
As to `CCC(=O)OC[n+]1ccc2c(C)c3[nH]c4ccccc4c3c(C)c2c1`, the GI50 is 0.444 µM (active) with CCRF-CEM; 0.516 µM (active) in the experiment on OVCAR-5; 1.35 µM (inactive) with Malme-3M; 0.478 µM (active) in the experiment with SF-539; 1.38 µM (inactive) in the experiment on SK-MEL-28; 0.675 µM (active) with NCI-H23. The GI50 with RPMI-8226 was 0.284 µM (active); in the experiment with HOP-92, 0.107 µM (active); in the experiment on SNB-75, 1.29 µM (inactive); in the experiment with HCT-116, 0.115 µM (active); in the experiment on OVCAR-8, 0.454 µM (active); in the experiment with KM-20L2, 0.504 µM (active). Further, the GI50 was 0.608 µM (active) with DMS-114, 2.45 µM (inactive) in the experiment on HL-60 and 0.142 µM (active) in the experiment on IGROV-1.
For the compound `O=C(c1ccccc1)C1CCCCN1C(=O)c1ccccc1` (centres undefined), the GI50 with DMS-273, in the experiment with CCRF-CEM, in the experiment on Malme-3M, with SF-539, with UO-31 and in the experiment with SK-MEL-28 was > 100 µM (inactive) each time. In addition, the GI50 in the experiment with UACC-62 was 25.7 µM (inactive); in the experiment on RPMI-8226 it was > 100 µM (inactive); in the experiment with SNB-75, > 100 µM (inactive); in the experiment with HCT-116 it was > 100 µM (inactive); with OVCAR-8, > 100 µM (inactive); in the experiment with KM-20L2 it was > 100 µM (inactive). For the same compound, the GI50 in the experiment with DMS-114, in the experiment with HL-60 and in the experiment with IGROV-1 was > 100 µM (inactive) each time.
Consider `C=CCNC1=NC(=O)C(CC(=O)Nc2ccc([N+](=O)[O-])cc2[N+](=O)[O-])S1` (centres undefined), for which the GI50 in the experiment with DMS-273 is > 100 µM (inactive); in the experiment with CCRF-CEM, > 100 µM (inactive); in the experiment with OVCAR-5, > 100 µM (inactive); in the experiment on Malme-3M it was > 100 µM (inactive); in the experiment with SF-539, > 100 µM (inactive); in the experiment on UO-31, 84.5 µM (inactive). Also, the GI50 in the experiment with SK-MEL-28 was > 100 µM (inactive); with NCI-H23 it was > 100 µM (inactive); with UACC-62, > 100 µM (inactive); with HOP-92, 85.7 µM (inactive); with SNB-75, 66.5 µM (inactive); in the experiment with HCT-116, > 100 µM (inactive). Further, the GI50 is > 100 µM (inactive) in the experiment with OVCAR-8; > 100 µM (inactive) with KM-20L2; 66.5 µM (inactive) with DMS-114; 52.5 µM (inactive) with HL-60; > 100 µM (inactive) in the experiment on IGROV-1.
`N#CC1C(C#N)C2(c3ccccc3)C(c3ccccc3)=NN(c3ccccc3)CC12` (centres undefined): the GI50 in the experiment on DMS-273, with CCRF-CEM, with OVCAR-5, in the experiment on Malme-3M, with SF-539 and with UO-31 was > 100 µM (inactive) throughout. Besides, the GI50 in the experiment on SK-MEL-28 was > 100 µM (inactive); in the experiment with UACC-62, 94.8 µM (inactive); in the experiment with RPMI-8226, > 100 µM (inactive); in the experiment with SNB-75, 36.4 µM (inactive); with HCT-116 it was > 100 µM (inactive); in the experiment with OVCAR-8, > 100 µM (inactive). The GI50 in the experiment on KM-20L2 was > 100 µM (inactive); in the experiment on DMS-114, 59.4 µM (inactive); in the experiment with HL-60, > 100 µM (inactive); with IGROV-1, > 100 µM (inactive).
Turning to `Cn1c(O)c(C(=O)Nc2ccc([N+](=O)[O-])cc2)c(=O)n(C)c1=S`, the GI50 was 2.38 µM (inactive) in the experiment with CCRF-CEM; 4.91 µM (inactive) in the experiment on OVCAR-5; 2.11 µM (inactive) in the experiment with Malme-3M; 1.9 µM (inactive) in the experiment on SF-539; 1.54 µM (inactive) with UO-31; 1.88 µM (inactive) in the experiment with SK-MEL-28. Besides, the GI50 in the experiment on NCI-H23 is 1.42 µM (inactive); in the experiment on UACC-62 it was 1.23 µM (inactive); in the experiment on RPMI-8226, 3.15 µM (inactive); in the experiment on HOP-92, 1.54 µM (inactive); with SNB-75 it was 1.63 µM (inactive); in the experiment on HCT-116 it was 2.26 µM (inactive). Moreover, the GI50 was 2.14 µM (inactive) in the experiment on OVCAR-8; 4.21 µM (inactive) in the experiment on KM-20L2; 2.27 µM (inactive) in the experiment on DMS-114; 2.25 µM (inactive) in the experiment on HL-60; 2.55 µM (inactive) with IGROV-1; 1.17 µM (inactive) in the experiment with BT-549. For the same compound, the GI50 in the experiment on MDA-MB-435 was 1.51 µM (inactive).
Regarding `CC(C)(C)c1cc(C(=O)O)c2c(c1)C(=O)OC2(c1ccccc1)c1ccccc1C(=O)O` (centres undefined), the GI50 in the experiment on DMS-273, with CCRF-CEM, with OVCAR-5, with Malme-3M, in the experiment with SF-539 and in the experiment with UO-31 was > 100 µM (inactive) each time. The GI50 in the experiment with SK-MEL-28 was > 100 µM (inactive); with NCI-H23, > 100 µM (inactive); in the experiment on UACC-62 it was > 100 µM (inactive); with HOP-92, > 100 µM (inactive); in the experiment on SNB-75 it was 90.4 µM (inactive); with HCT-116 it was > 100 µM (inactive). The GI50 in the experiment with OVCAR-8, in the experiment with KM-20L2, in the experiment on DMS-114 and with HL-60 was > 100 µM (inactive) throughout.
Regarding `Cc1nc2ccccc2c(=O)n1/N=C(\N=N\c1ccccc1Cl)c1ccccc1`, the GI50 with DMS-273 was 31.6 µM (inactive); with CCRF-CEM, 17.3 µM (inactive); with SF-539 it was 18.7 µM (inactive); in the experiment with UO-31, 28 µM (inactive); in the experiment on SK-MEL-28, 41.5 µM (inactive); in the experiment with NCI-H23 it was 44.5 µM (inactive). Also, the GI50 was 17.5 µM (inactive) in the experiment with UACC-62; 17 µM (inactive) in the experiment on RPMI-8226; 36.5 µM (inactive) in the experiment on HOP-92; > 10 µM (inactive) with HCT-116; 31.3 µM (inactive) in the experiment on OVCAR-8; 21.9 µM (inactive) in the experiment with KM-20L2. For the same compound, the GI50 with DMS-114 is 15.5 µM (inactive); with HL-60, 15.3 µM (inactive); in the experiment on IGROV-1, 19.4 µM (inactive).
For `CSc1ccc(C2OC(=O)c3ccccc32)c2ccccc12` (centres undefined), the GI50 in the experiment with CCRF-CEM is 54.8 µM (inactive); in the experiment with OVCAR-5, > 100 µM (inactive); in the experiment on Malme-3M, > 100 µM (inactive); with SF-539, > 100 µM (inactive); in the experiment on UO-31, 39.7 µM (inactive); with SK-MEL-28, > 100 µM (inactive). The GI50 was 54.3 µM (inactive) with UACC-62; 47.2 µM (inactive) in the experiment on RPMI-8226; 49 µM (inactive) with HOP-92; 14.2 µM (inactive) with SNB-75; 87.5 µM (inactive) with HCT-116; > 100 µM (inactive) in the experiment with OVCAR-8. The GI50 was 67 µM (inactive) in the experiment on KM-20L2, 74.3 µM (inactive) in the experiment on DMS-114, 61.2 µM (inactive) in the experiment on HL-60 and 98.9 µM (inactive) with IGROV-1.
For `CNC(=S)NNC(=O)c1c(C)nc2sccn12`, the GI50 in the experiment with DMS-273, with CCRF-CEM, in the experiment with OVCAR-5, in the experiment with Malme-3M, with SF-539 and with SK-MEL-28 was > 100 µM (inactive) each time. Further, the GI50 in the experiment with NCI-H23, in the experiment with UACC-62, with HOP-92, in the experiment on HCT-116, with OVCAR-8 and with KM-20L2 was > 100 µM (inactive) throughout. In addition, the GI50 in the experiment with HL-60 and with IGROV-1 was > 100 µM (inactive) in each case.
On to `COC(=O)C(C(=O)C(=O)Nc1cccc(C)c1)C1=NC(N)SS1` (centres undefined), for which the GI50 in the experiment with DMS-273, in the experiment on CCRF-CEM, in the experiment with OVCAR-5, in the experiment on Malme-3M, with SF-539 and in the experiment with UO-31 was > 100 µM (inactive) in each case. Also, the GI50 with SK-MEL-28, in the experiment on NCI-H23, in the experiment with UACC-62, in the experiment with RPMI-8226, with SNB-75 and with HCT-116 was > 100 µM (inactive) in each case. The GI50 in the experiment on OVCAR-8, in the experiment on KM-20L2, in the experiment on DMS-114, with HL-60 and in the experiment on IGROV-1 was > 100 µM (inactive) each time.
